The record followed here is patent US20220249596A1, “PIC1 PEPTIDE COMPOSITIONS AND METHODS OF USE THEREOF FOR TREATMENT OF HYPOXIC ISCHEMIC ENCEPHALOPATHY” (REALTA HOLDINGS, LLC, priority 2019, published 2022).

No end group written: not given here.

One test has as its system brain infarct after HIE. As to conditions: rat, in vivo, ip, 160 mg/kg.
Another test deals with C5aR. Briefly: Whole brain C5aR expression, Western blotting and immunofluorescence. The test is classed as in vivo, rat. As to conditions: NT versus PIC1-treated groups. The method, then:
(§1) After blocking for one hour at room temperature, tissues were incubated with 1:300 goat anti-Iba1 (Abcam), 1:250 goat anti-GFAP (Abcam), 1:500 chicken anti-NeuN (Millipore, Billerica, Mass.), or 1:100 mouse anti-NeuN (Millipore) in host appropriate blocking serum overnight at 4° C. Primary antibodies were probed with 1:500 donkey anti-goat (Abcam), goat anti-chicken (Abcam), or goat anti-mouse (Abcam) AF 488 or 568 in appropriate blocking serum for one hour at room temperature. Tissues were blocked a second time with NGS for one hour at room temperature. Samples were then probed with 1:300 mouse anti-C1q (Abcam), 1:300 rabbit anti-C9, 1:50 rabbit anti-MPO (Abcam), 1:200 rabbit anti-TMEM (Novus Bio, Centennial, Colo.), 1:100 rabbit anti-C3aR (Bioss), 1:100 Mouse anti-C5aR (Hycult), or 1:200 chicken anti-C3/C3a (Abcam) in NGS overnight at 4° C. and then with 1:500 goat anti-mouse, rabbit, or chicken (Abcam) AF 488 or 568 in NGS for one hour at room temperature.
Without wishing to be bound by theory, C3a is generated at the convergence of all known complement activation pathways (i.e., the classical, alternate and lectin pathways). To investigate further, C3aR levels in the brain were measured by Western blotting and immunofluorescence (FIG. 5). Western blotting was performed as follows. […]
Background: Immunoblotting shows a protein as a band on a membrane.

Another test has as its system C1q. As to the kind of experiment: Immunofluorescence quantification of C1q in brain. It counts as in vivo, rat. As to conditions: ipsilateral cortex and hippocampus, 48 hours, versus NT and HT, P<0.05. On the procedure:
(§2) TUNEL/C1q staining was performed as follows. Five (5) μm paraffin-embedded coronal brain sections on slides were incubated (1 hour; 60° C.), deparaffinized with xylene, and rehydrated with ethanol (100%, 95%, 70%; RT). Endogenous peroxidase activity was blocked (0.3% H2O2/MeOH; 10 minutes; RT), and heat induced antigen retrieval was performed (when indicated) using 10 mM sodium citrate, pH 6.0. 10% normal serum (from the same species as the host of the secondary antibody) was used to block and to dilute antibodies. Samples were washed twice for 10 min each, in PBST between each step.
(§3) After blocking for one hour at room temperature, tissues were incubated with 1:300 goat anti-Iba1 (Abcam), 1:250 goat anti-GFAP (Abcam), 1:500 chicken anti-NeuN (Millipore, Billerica, Mass.), or 1:100 mouse anti-NeuN (Millipore) in host appropriate blocking serum overnight at 4° C. Primary antibodies were probed with 1:500 donkey anti-goat (Abcam), goat anti-chicken (Abcam), or goat anti-mouse (Abcam) AF 488 or 568 in appropriate blocking serum for one hour at room temperature. Tissues were blocked a second time with NGS for one hour at room temperature. […]

In the next test the test system is C3. Briefly: Immunofluorescence quantification of C3 in brain. The test is classed as in vivo, rat. As to conditions: ipsilateral cortex and hippocampus, 48 hours, versus NT, P<0.05. The method, then:
as §2, §3

The next test relates to MPO (Myeloperoxidase). Briefly: Myeloperoxidase expression in cortex (oxidant stress). As to conditions: 48 hours after injury, versus NT animals, P<0.01. It counts as in vivo, rat. The method, then:
as §1
To examine the effect of PIC1 treatment on oxidant stress, expression of the enzyme myeloperoxidase (MPO) was measured in the cortex of the brain. MPO is an enzyme from neutrophils that damages invading and host cells alike. MPO is one of the markers of oxidative stress after ischemic injury and is responsible for generating reactive oxygen species (hypochlorous acid and hydrogen peroxide). […]

The nature of test [1]: Beam balance test (tapered/ledged beam). The test is classed as in vivo, rat. As to conditions: six weeks after surgery. The method, then: No other preparation was needed. The thawed tubes were kept on ice until dosing.
Six weeks after surgery, the sensory motor functions of forelimbs and hindlimbs were tested using tapered/ledged beam (Zhao et al., Behav. Brain Res. 156 (2005), 85-94). The shape of the beam was square. The rats were pre-trained for 3 days to traverse the beam. The beam-walking apparatus consists of a horizontal 160 cm tapered (square) beam with underhanging ledges on each side to permit foot faults without falling. The end of the beam was connected to a black box (20.5 cm×25 cm×25 cm) with a platform at the starting point. A bright light was placed above the start point to motivate the rats to traverse the beam. The rats' performance was videotaped and were analyzed by calculating the slip ratio of the impaired (contralateral to lesion) forelimb and hindlimb (number of slips/number of total steps). Steps onto the ledge were scored as a full slip and a half slip was given if the limb touched the side of the beam. Also, the walking/running time on the beam were measured. The mean of three trials were used for statistical analyses. Analysis was carried out by an observer blind to the experimental groups.

Consider “IALILEPICCQERAA-dPEG24 (cysteine pairing not given here) [PIC1]”, for which the “decrease in brain infarct size” value in the test with brain infarct after HIE is given as 68%. For the same substance, the “expression of C5aR” value in the test with C5aR was “no significant differences”. In the test on C1q, the C1q expression entry is on record as “significant reduction”. Also, the C3 expression entry in the test with C3 is recorded as “decreased expression”. The “decrease of MPO expression in brain” value with MPO (Myeloperoxidase) is on record as 83%. Besides, in test [1] (between study groups), the “beam balance: hind paw slips” value is reported as “No differences”. Besides, the “beam balance: front paw slips” value in test [1] (pooled genders and males, versus H/I+normo, p<0.05) was “fewer front paw slips”.
